Patent US20070028400A1, “Skin and/or hair treatment agent containing tetrasubstituted cyclohexene compounds” (priority 2003, published 2007)

Tested on: primary normal human melanocytes
Experiment: Melanogenesis assay (C14-tyrosine incorporation), 3 days incubation
Format: cell-based
Conditions: measured as C14-tyrosine incorporation, n=3
Procedure: By way of example, the test for the compound acetyl-retinyliminoethanol is given.
A melanogenesis assay was carried out after incubation for 3 days of primary normal human melanocytes with test substance compared to control. The numbers given in the table indicate the melanogenesis rates based on the untreated control (=100%) (measured as C14-tyrosine incorporation).

`CC(=O)OCC/N=C/C=C(C)/C=C/C=C(C)/C=C/C1=C(C)CCCC1(C)C` [acetyl-retinyliminoethanol, 2-{[(1E,2E,4E,6E,8E)-3,7-dimethyl-9-(2,6,6-trimethylcyclohex-1-en-1-yl)nona-2,4,6,8-tetraen-1-ylidene]amino}ethyl acetate] was tested, and the “melanogenesis rate based on the untreated control (=100%), Average” value (0.1 μg/ml test substance) was 117% and the “melanogenesis rate based on the untreated control (=100%), Average” value (1 μg/ml test substance) was 253%.
